Where “and” joins values, the source holds several entries; their conditions need not be identical. Identical values can stand only once.
Columns and labels:
[1] = molecular target: T1, Inhibitor of nuclear factor kappa-B kinase subunit alpha (Homo sapiens) (UniProt O15111); details: at 1 µM
T1 sequence (whole entry): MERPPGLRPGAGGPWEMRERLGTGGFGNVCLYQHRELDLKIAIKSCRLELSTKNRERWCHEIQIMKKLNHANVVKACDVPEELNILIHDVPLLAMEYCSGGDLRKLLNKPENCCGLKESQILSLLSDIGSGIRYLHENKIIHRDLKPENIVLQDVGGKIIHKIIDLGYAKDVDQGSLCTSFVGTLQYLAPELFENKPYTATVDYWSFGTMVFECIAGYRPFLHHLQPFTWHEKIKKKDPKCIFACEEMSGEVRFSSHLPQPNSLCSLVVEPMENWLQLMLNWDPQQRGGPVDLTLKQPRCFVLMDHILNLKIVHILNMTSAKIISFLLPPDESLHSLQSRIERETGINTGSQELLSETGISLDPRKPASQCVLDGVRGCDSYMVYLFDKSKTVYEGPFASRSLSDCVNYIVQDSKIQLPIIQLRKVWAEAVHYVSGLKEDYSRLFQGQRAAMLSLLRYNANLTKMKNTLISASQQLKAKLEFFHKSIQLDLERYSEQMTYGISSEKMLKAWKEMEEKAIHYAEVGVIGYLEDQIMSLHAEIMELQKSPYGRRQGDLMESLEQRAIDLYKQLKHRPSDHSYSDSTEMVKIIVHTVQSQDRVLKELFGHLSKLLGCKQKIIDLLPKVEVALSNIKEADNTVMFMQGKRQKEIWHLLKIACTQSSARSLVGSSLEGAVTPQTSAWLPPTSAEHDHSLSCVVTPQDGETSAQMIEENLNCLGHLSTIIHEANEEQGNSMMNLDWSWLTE

[2] = molecular target: T2, Tyrosine-protein kinase Mer (Homo sapiens) (UniProt Q12866); details: at 10 µM
T2 sequence (whole entry): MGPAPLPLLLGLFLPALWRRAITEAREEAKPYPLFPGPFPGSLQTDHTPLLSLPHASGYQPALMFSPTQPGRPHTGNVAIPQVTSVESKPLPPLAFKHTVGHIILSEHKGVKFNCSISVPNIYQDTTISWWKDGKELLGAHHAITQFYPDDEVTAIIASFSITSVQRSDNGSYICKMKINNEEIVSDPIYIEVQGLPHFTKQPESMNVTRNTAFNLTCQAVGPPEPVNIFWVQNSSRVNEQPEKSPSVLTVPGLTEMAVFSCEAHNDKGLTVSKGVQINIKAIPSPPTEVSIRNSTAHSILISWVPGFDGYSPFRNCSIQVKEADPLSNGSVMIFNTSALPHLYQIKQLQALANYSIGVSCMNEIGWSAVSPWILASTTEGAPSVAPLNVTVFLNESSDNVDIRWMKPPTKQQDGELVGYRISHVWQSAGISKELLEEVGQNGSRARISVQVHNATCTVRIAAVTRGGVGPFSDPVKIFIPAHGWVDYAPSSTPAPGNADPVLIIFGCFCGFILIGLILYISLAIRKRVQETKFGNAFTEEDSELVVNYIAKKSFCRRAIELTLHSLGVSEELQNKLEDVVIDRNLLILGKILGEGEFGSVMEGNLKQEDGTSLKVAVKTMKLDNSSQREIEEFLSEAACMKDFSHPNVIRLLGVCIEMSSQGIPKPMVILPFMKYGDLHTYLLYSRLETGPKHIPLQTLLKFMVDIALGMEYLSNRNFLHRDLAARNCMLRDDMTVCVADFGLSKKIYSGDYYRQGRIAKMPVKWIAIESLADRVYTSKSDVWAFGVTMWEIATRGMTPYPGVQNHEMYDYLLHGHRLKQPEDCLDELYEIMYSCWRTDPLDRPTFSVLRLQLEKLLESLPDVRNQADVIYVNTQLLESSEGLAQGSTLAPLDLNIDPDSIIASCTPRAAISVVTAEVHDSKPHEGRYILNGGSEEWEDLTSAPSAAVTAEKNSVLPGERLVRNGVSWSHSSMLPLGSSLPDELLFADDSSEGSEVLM

[3] = molecular target: T3, Inhibitor of nuclear factor kappa-B kinase subunit beta (Homo sapiens) (UniProt O14920); details: at 1 µM
T3 sequence (whole entry): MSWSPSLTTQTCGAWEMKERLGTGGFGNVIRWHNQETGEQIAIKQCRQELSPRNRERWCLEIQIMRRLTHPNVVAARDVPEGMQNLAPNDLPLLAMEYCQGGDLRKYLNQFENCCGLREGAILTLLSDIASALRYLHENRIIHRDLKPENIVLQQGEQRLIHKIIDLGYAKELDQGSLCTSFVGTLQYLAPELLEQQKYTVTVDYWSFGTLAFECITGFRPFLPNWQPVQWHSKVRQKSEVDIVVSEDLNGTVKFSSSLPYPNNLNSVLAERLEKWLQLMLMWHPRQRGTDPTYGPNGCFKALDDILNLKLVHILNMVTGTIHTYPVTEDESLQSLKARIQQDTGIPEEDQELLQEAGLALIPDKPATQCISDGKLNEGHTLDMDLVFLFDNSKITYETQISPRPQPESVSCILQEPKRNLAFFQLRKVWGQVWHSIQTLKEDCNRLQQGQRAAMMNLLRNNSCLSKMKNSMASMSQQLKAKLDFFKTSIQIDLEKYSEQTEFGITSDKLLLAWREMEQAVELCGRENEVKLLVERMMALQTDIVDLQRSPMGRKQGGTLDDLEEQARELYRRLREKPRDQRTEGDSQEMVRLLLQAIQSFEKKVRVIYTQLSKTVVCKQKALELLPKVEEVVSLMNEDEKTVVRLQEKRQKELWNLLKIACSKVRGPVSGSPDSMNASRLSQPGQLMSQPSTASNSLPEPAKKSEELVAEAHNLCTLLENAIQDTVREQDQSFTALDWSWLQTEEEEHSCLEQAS

Row | Structure (SMILES) | inhibition [1] | inhibition [2] [%] | inhibition [3]
1 | COc1cc(C)c(N(C)C(=O)CN(C)C)cc1Nc1nc(Nc2cccc(F)c2C(N)=O)c2cc[nH]c2n1 | 4% and 3% | 50 | -3% and -6%
2 | CN1CCC(n2cnc(-c3ccc(F)cc3)c2-c2ccnc(Nc3ccccc3)n2)CC1 | -1% and 0% | -1 | -3% and 2%
3 | COc1cccc(-n2cnc3c(N/N=C/c4ccncc4)ncnc32)c1 | 2% and -3% | -4 | -3% and 4%
4 | COC(=O)Nc1nc2ccc(S(=O)(=O)c3ccc(NC(=O)Nc4cc(C(F)(F)F)ccc4F)cc3)cc2[nH]1 | 2% and 3% | 0 | -6% and -5%
5 | COc1ccc(C2=C(N3CCc4ccccc43)C(=O)NC2=O)cc1 | 2% and 0% | 3 | -2% and -6%
6 | NS(=O)(=O)c1ccc(Nc2cc(-c3ccc(O)c(F)c3)n[nH]2)cc1 | 1% and -1% | -1 | -2% and -1%
7 | COc1cc(/C=N/Nc2ncnc3c2cnn3C(C)C)ccc1O | -3% and 1% | 2 | 4% and 0%
8 | COc1cccc(-n2nc(C)c3c(N/N=C(\C)c4ccncc4)ncnc32)c1 | 7% and 6% | -8 | -3%
9 | NS(=O)(=O)c1ccc(Nc2ncc(-c3ccccc3)o2)cc1 | 4% and 3% | 2 | -2% and 2%
10 | COC(=O)Nc1nc2cc(Oc3cccc(NC(=O)Nc4cc(C(F)(F)F)ccc4F)c3)ccc2[nH]1 | 0% and 2% | -10 | 0% and 5%
11 | COc1cccc(-n2ncc3c(N/N=C/c4ccc(F)cc4)ncnc32)c1 | 5% and 3% | -2 | 1% and -3%
12 | Nc1nccc(-c2c(-c3ccc(F)cc3)nn3cc(C(F)(F)F)ccc23)n1 | 1% and 0% | 88 | -2% and -4%

Next, values leading:

Row | inhibition [1] | inhibition [2] [%] | inhibition [3] | Structure (SMILES)
13 | 1% and 0% | 68 | 15% and 0% | COc1cc(Nc2ncc(-c3ccccc3)o2)cc(OC)c1OC
14 | 7% and 5% | -2 | -5% | Fc1ccc(-c2nn3ccccc3c2-c2ccncc2)cc1
15 | 8% and 9% | -6 | 3% and 2% | O=C1NC(=O)C(N2CCc3ccccc32)=C1c1ccc(Cl)cc1
16 | 2% and 4% | 94 | -3% and 3% | COC(=O)Nc1nc2cc(Oc3ccc(NC(=O)Nc4cccc(C(=O)O)c4)cc3)ccc2[nH]1
17 | 3% | 62 | -5% and -2% | O=C1NC(=O)C(c2ccc(Cl)cc2)=C1Nc1ccc(Cl)c(C(=O)O)c1
18 | 3% | -5 | -3% and -4% | CC1(C)CC(n2cnc(-c3ccc(F)cc3)c2-c2ccnc(N)n2)CC(C)(C)N1
19 | 14% and 7% | -6 | -4% and -3% | OCc1ccc(-c2nc(-c3ccccn3)c(-c3ccc4c(c3)OCO4)[nH]2)cc1
20 | 2% and 3% | 0 | 2% and 0% | CN(C)CCCNc1nccc(-c2c(-c3ccc(F)cc3)nn3cc(C(F)(F)F)ccc23)n1
21 | 2% and 5% | -5 | -6% and -3% | Fc1cccc(COc2ccc(Nc3ncncc3C#Cc3ccccc3)cc2Cl)c1
22 | 3% | 5 | -2% and 0% | C[C@@H](Oc1cc(-n2cnc3ccc(OCC4CCN(C)CC4)cc32)sc1C(N)=O)c1ccccc1C(F)(F)F
23 | 4% and 3% | 15 | -4% and -7% | O=C(O[C@H]1CN[C@H](C#Cc2cc3ncnc(Nc4ccc5c(cnn5Cc5ccccc5)c4)c3s2)C1)N1CCOCC1
24 | -9% and 5% | -6 | -2% and -1% | CS(=O)(=O)CCNCc1nc(-c2ccc3ncnc(Nc4ccc(OCc5cccc(C(F)(F)F)c5)cc4)c3c2)cs1
25 | 12% and 15% | 0 | 2% | COc1cc(C=NNc2ncnc3c2cnn3-c2ccccc2)ccc1O

— ChEMBL document CHEMBL2007661, “Compounds: GSK PKIS; Assays: UNC Frye lab” (2012)
